According to publication PMC3319563 (PLoS ONE, 2012):

Experiments:
[1] = target: T1, AtuGSTH1-1 (Agrobacterium fabrum, UniProt A9CFJ9); experiment: steady-state kinetics, GST assay; type: biochemical; conditions: co-substrate GSH; 0.1 M potassium phosphate pH 6.5, 37 °C; read-out: Κm
T1 construct: gene Atu3701; homodimer by crystal symmetry
T1 sequence (A9CFJ9 1-230): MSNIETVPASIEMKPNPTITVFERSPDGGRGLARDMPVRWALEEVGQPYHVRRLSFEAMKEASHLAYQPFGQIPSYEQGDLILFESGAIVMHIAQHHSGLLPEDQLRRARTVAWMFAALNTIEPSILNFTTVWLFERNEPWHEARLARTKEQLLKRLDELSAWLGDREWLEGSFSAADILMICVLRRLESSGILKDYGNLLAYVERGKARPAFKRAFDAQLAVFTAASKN
Text: steady-state kinetics, GST assay on AtuGSTH1-1

[2] = target: T2, AtuGSTH1-1 (Agrobacterium fabrum, UniProt A9CFJ9, S25A); conditions: read-out: Km, (mM) (CDNB) / Km, (mM) (CuOOH); co-substrate GSH
T2 construct: gene Atu3701

[3] = target: T3, AtuGSTH1-1 (Agrobacterium fabrum, UniProt A9CFJ9, R187A); conditions: read-out: Km, (mM) (CDNB) / Km, (mM) (CuOOH); co-substrate GSH
T3 construct: gene Atu3701

[4] = target: T4, AtuGSTH1-1 (Agrobacterium fabrum, UniProt A9CFJ9, F22A); conditions: read-out: Km, (mM) (CDNB) / Km, (mM) (CuOOH); co-substrate GSH
T4 construct: gene Atu3701

[5] = target: T1, AtuGSTH1-1; experiment: steady-state kinetics, thioltransferase assay; type: biochemical; conditions: co-substrate GSH; 0.1 M potassium phosphate pH 6.5, 37 °C; read-out: Κm
Text: steady-state kinetics, thioltransferase assay on AtuGSTH1-1

[6] = substrate: CC(C)(C)OO; experiment: steady-state kinetics, GSH-dependent peroxidase assay; type: biochemical, Agrobacterium fabrum; conditions: co-substrate GSH, 0.1 M potassium phosphate pH 6.5, 37 °C
[7] = substrate: CC(C)(OO)c1ccccc1; experiment: as above; type: biochemical, Agrobacterium fabrum; conditions: co-substrate GSH, 0.1 M potassium phosphate pH 6.5, 37 °C

Which Km [1] does the source give for O=[N+]([O-])c1ccc(Cl)c([N+](=O)[O-])c1 [CDNB, 1-chloro-2,4-dinitrobenzene] here?
The Km was 1500 ± 90 µM.

What about the Km [2] of the same molecule?
Its Km is 1.9 ± 0.18 mM.

And the Km [3]?
The Km was 7.1 ± 0.76 mM.

And the Km [4]?
The Km was 3.2 ± 0.39 mM.

With OCCSSCCO [HEDS] as the molecule, how does the Km [5] read?
The Km was 4100 ± 120 µM.

B1: AtuGSTH1-1 (Agrobacterium fabrum str. C58) (protein)
chain: MSNIETVPASIEMKPNPTITVFERSPDGGRGLARDMPVRWALEEVGQPYHVRRLSFEAMKEASHLAYQPFGQIPSYEQGDLILFESGAIVMHIAQHHSGLLPEDQLRRARTVAWMFAALNTIEPSILNFTTVWLFERNEPWHEARLARTKEQLLKRLDELSAWLGDREWLEGSFSAADILMICVLRRLESSGILKDYGNLLAYVERGKARPAFKRAFDAQLAVFTAASKN
notes: homodimer by crystal symmetry
Which results are given for B1?
Km [6]: 1600 ± 70 µM; kcat [6]: 2.495 ± 0.0868 s⁻¹; Km [7]: 2700 ± 210 µM; kcat [7]: 5.657 ± 0.101 s⁻¹
